The compounds below were run against T1, NAC peptide (Homo sapiens, UniProt P37840) (assay: Binding to NAC peptide by electrospray mass spectrometry). Conditions: 5:1 ratio (20 μM NAC: 100 μM test compound or 40 μM NAC: 200 μM test compound), 6.6% EtOH, pH 7.4; bound complex peak area / unbound NAC peak area.
T1 construct: NAC is a 35 amino acid long peptide with highly hydrophobic stretches
Method: The ability of the compounds of the present invention to bind to NAC peptide in aqueous solution was evaluated. The binding ability correlates to the intensities of the peptide-compound complex peaks observed by the Electrospray Mass Spectrum. Millipore distilled deionized water was used to prepare all aqueous solutions. For pH determination a Beckman Φ36 pH meter fitted with a Corning Semi-Micro Combination pH Electrode was employed.
The optimal cone voltage was determined to be 20V.
Mass spectrometry—Mass spectrometric analysis was performed using a Waters ZQ 4000 mass spectrometer equipped with a Waters 2795 sample manager. MassLynx 4.0 (earlier by MassLynx 3.5) was used for data processing and analysis. Test compounds were mixed with disaggregated peptides in aqueous media (6.6% EtOH) at a 5:1 ratio (20 μM NAC: 100 μM of test compound or 40 μM NAC:200 μM of test compound). The pH of the mixture was adjusted to 7.4 (±0.2) using 0.1% NaOH (3-5 μL). Periodically, NAC peptide solution at 20 μM or 40 μM was also prepared in the same fashion and run as control. The spectra were obtained by introducing the solutions to the electrospray source by direct infusion using a syringe pump at a flow rate of 25 μl/min, and scanning from 100 to 2100 Da in the positive mode. The scan time was 0.9 sec per scan with an inter-scan delay of 0.1 sec and the run time was 5 min for each sample. All the mass spectra were sum of 300 scans. The desolvation and source temperature was 70° C. and the cone and capillary voltage were maintained at 20 V and 3.2 kV respectively.
The total area under the peaks for the bound NAC-compound complex divided by total area under the peaks for unbound NAC was determined for each compound tested.
NCCCCS(=O)(=O)O was tested, and the “NAC peptide Binding Strength” value was “+ (+ = Weak; when the total binding is between 70% and 30%)”. With NCCCOS(=O)(=O)[O-].[Na+] [H2NCH2CH2CH2OSO3Na] the “NAC peptide Binding Strength” value was “++ (++ = Moderate; when the total binding is between 120% and 70%)”. NCCS(=O)(=O)O [H2NCH2CH2SO3H] was tested, and the “NAC peptide Binding Strength” value was “+ (+ = Weak; when the total binding is between 70% and 30%)”. For NCCOS(=O)(=O)O [NH2CH2CH2OSO3H], the “NAC peptide Binding Strength” value was “− (− = None; when the total binding is between 30% and 0%)”. O=S(=O)([O-])CCCCS(=O)(=O)[O-].[Na+].[Na+] [NaO3SCH2(CH2)2CH2SO3Na] was tested, and the “NAC peptide Binding Strength” value was “− (− = None; when the total binding is between 30% and 0%)”. O=S(=O)([O-])OCCCOS(=O)(=O)[O-].[Na+].[Na+] [NaO3SOCH2CH2CH2OSO3Na] was tested, and the “NAC peptide Binding Strength” value was “− (− = None; when the total binding is between 30% and 0%)”. CC(C)(C)NCCCS(=O)(=O)O [drawing 487] was tested, and the “NAC peptide Binding Strength” value was “++ (++ = Moderate; when the total binding is between 120% and 70%)”. O=S(=O)(O)CCCNC1C2CC3CC(C2)CC1C3 (stereo not drawn) [drawing 488] was tested, and the “NAC peptide Binding Strength” value was “++ (++ = Moderate; when the total binding is between 120% and 70%)”. With O=S(=O)(O)CC(O)CNC1CCCCC1 (stereo not drawn) [drawing 490] the “NAC peptide Binding Strength” value was “+++ (+++ = Strong; when the total binding is 120% and higher)”.
